Format in all cases: cell-based
Settings in all cases: Xenopus oocytes

For experiment [1], the target named is T1, TRAAK/EK-1 M3-C (Mus musculus, UniProt O88454+P97438, A173T/A231F/D223G/E202D/F190V/F242V/G166T/G224S/G226I/H162N/I179F/I208V/K200A/L167K/L171I/L175I/L177I/L182V/L186A/L235V/M195I/N228Y/N256D/P164S/P165Q/P221A/P230D/Q227E/Q233K/S170I/S193K/S197G/S229L/S249A/T187L/T189A/T225D/T252S/T253M/V168I/V174I/V191I/V209I/V214I/Y194H).
T1 construct: Trp161 (TRAAK/EK-1 M3-C); expressed in transfected cells; host or cells: Xenopus laevis oocytes, mRNA injected; chimera built by Gibson assembly
Kind of experiment: TEVC of chimera TRAAK/EK-1 M3-C.

The target of experiment [2] is T2, K2P4.1(TRAAK) L147F (Mus musculus, UniProt O88454, L147F).
T2 construct: expressed in transfected cells; host or cells: Xenopus laevis oocytes, mRNA injected
Kind of experiment: TEVC of K2P4.1(TRAAK) mutant L147F. The source says:
To identify K2P2.1(TREK-1) M2 residues that might participate in the BL-1249 response, we mapped the residues that differ between K2P2.1(TREK-1) and K2P4.1(TRAAK) in the context of the K2P2.1(TREK-1) structure[6] (Figure 5B,C). Two K2P2.1(TREK-1) M2 residues stood out as candidates that could explain the reduction in BL-1249 response when the entire M2 helix was replaced with M2 from K2P4.1(TRAAK). One is at the M2/M4 interface and occurs between Phe172 and Arg297 via a π–cation interaction that would be lost when Phe172 is replaced with the equivalent K2P4.1(TRAAK) residue Met134 (Figure 5C, right inset). […] To assess the importance of these interactions in the context of BL-1249 response, we made the K2P2.1(TREK-1) mutants F172M and F185L and measured their responses to BL-1249 (Figure 5D). […]
Xenopus laevis oocytes were harvested in accordance with UCSF IACUC protocol AN129690 and digested in calcium-free ND-96 (96 mM NaCl, 2 mM KCl, 3.8 mM MgCl2) immediately following harvest, as previously described.[6],[10] […] Defolliculated stage V–VI oocytes were injected with 0.2–6.0 ng of mRNA in 50 nL, and currents were recorded 24–48 h after injection. mRNA was synthesized from plasmid DNA using mMessage mMachine Kit (T7 promoter, Ambion, Life Technologies) and purified using RNEasy Kit (Qiagen). […]

The target in experiment [3] is T3, TREK-1/AAK M3-C (Mus musculus, UniProt O88454+P97438).
T3 construct: Trp199 (TREK-1/AAK M3-C); expressed in transfected cells; host or cells: Xenopus laevis oocytes, mRNA injected; chimera built by Gibson assembly
T3 sequence (P97438+O88454 with tags, fused parts or gaps P97438:N200H/P97438:S202P/P97438:Q203P/P97438:T204G/P97438:K205L/P97438:I206V/P97438:I208S/P97438:I209L/P97438:T211A/P97438:I212V/P97438:I213L/P97438:I215L/P97438:F217I/P97438:V220L/P97438:A224L/P97438:L225T/P97438:A227T/P97438:V228F/P97438:I229V/P97438:K231S/P97438:H232Y/P97438:I233M/P97438:G235S/P97438:A238K/P97438:D240E/P97438:V246I/P97438:I247V/P97438:I252V/P97438:A259P/P97438:G261D/P97438:S262G/P97438:D263T/P97438:I264G/P97438:E265Q/P97438:Y266N/P97438:L267S/P97438:D268P/P97438:F269A/P97438:K271Q/P97438:V273L/P97438:V280F/P97438:A287S/P97438:S290T/P97438:M291T/P97438:D294N): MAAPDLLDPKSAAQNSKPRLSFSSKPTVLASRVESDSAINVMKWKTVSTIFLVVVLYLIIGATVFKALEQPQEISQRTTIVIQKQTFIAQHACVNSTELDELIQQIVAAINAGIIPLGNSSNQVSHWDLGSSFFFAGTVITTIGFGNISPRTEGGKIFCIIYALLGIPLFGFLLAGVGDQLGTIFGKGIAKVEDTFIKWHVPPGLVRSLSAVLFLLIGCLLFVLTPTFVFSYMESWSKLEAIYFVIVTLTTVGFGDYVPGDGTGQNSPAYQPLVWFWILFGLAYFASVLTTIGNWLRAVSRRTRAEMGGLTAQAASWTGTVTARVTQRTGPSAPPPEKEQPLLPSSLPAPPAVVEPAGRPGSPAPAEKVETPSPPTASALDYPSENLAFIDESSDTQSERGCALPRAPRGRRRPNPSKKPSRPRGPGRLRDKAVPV
Description: TEVC of chimera TREK-1/AAK M3-C.

By EC50 is commonly meant the concentration at which the effect is half-maximal. Low readings indicate greater potency, high ones weaker potency.

T1 sequence (O88454+P97438 fused with the stated changes): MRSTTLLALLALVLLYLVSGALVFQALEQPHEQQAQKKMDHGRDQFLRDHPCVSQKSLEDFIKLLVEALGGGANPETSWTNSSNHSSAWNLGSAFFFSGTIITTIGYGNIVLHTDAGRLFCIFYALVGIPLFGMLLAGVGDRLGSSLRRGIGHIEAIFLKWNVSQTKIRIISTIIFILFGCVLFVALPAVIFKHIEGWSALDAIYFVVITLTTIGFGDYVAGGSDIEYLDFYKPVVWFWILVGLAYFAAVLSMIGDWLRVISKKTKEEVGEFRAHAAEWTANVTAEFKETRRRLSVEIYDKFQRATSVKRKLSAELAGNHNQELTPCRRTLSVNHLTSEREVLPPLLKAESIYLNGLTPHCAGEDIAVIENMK
T2 sequence (O88454 whole entry L147F): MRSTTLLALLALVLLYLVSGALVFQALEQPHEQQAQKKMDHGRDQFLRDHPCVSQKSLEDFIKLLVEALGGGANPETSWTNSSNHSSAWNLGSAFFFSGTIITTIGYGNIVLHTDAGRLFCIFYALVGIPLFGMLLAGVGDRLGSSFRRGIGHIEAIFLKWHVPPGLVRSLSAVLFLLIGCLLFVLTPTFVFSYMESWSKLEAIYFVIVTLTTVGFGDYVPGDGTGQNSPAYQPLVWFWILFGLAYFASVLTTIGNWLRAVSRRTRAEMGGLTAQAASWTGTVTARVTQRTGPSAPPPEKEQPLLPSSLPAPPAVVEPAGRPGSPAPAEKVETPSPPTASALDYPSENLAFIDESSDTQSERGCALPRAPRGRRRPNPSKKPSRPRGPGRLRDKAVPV

Take `c1ccc(-c2nnn[nH]2)c(Nc2cccc3c2CCCC3)c1` [BL-1249, (5,6,7,8-tetrahydro-naphthalen-1-yl)-[2-(1H-tetrazol-5-yl)-phenyl]-amine]: the EC50 in experiment [1] is 18 ± 2 µM; in experiment [2], 27 ± 4 µM; in experiment [3] it was 28 ± 2 µM.
`CS(=O)(=O)Nc1ccc(C(=O)NCc2ccc(Cl)cc2Cl)cc1` [ML335]: the EC50 is 13 ± 2 µM in experiment [1] and > 100 µM in experiment [3].

Values taken from PMC6302903, “Protein and Chemical Determinants of BL-1249 Action and Selectivity for K2P Channels” (ACS Chemical Neuroscience, 2018).
